Earlier results on 1 compound are cited in patent US20250049933A1, “DRUG DELIVERY SYSTEM FOR TARGETED CANCER TREATMENT” (priority 2024, published 2025).

The conditions of data set [1]: in vivo.

Take `Nc1ccn([C@@H]2O[C@H](CO)[C@@H](O)C2(F)F)c(=O)n1` [GEM, gemcitabine]: the oral bioavailability in data set [1] is listed as 9%. In addition, in the data set with pancreatic cancer, the overall survival is reported as 6.7 months.
